Test results published in patent publication US6521641B1, “Male anti-fertility agents” (Allergan, Inc., priority 1998, dated 2003).
Like-named read-outs stand apart in the source and are kept apart here.

Columns and labels:
[1] = Toxicokinetics of oral AGN 194310 in rats (drug in blood by GC/MS); assay type: in vivo, rat; conditions: for Tmax / Cmax / AUC(0-t): both sexes, Sprague-Dawley, rat, whole blood; for Tmax: Day 22; for Cmax / AUC(0-t): po; for Cmax: N = 8; for AUC(0-t): N = 8, read-out: AUC24 hr
Experimental: The concentration of drug in the blood was determined from blood drawn from the retro-orbital sinus of the right eye on Day 7 of the study as follows: for rats in groups 7 through 9 (4/sex/group/timepoint, with each animal being bled no more than 3 times), blood (approximately 1 ml) was drawn prior to being given the drug, and at approximately 2, 6, 8, 12 and 24 hours post-dosing. The vehicle-treated rats (group 6) were bled at approximately 8 and 24 hours post-dosing. The rats in groups 6 through 9 were similarly bled on Day 22 of the study, then euthanized. All blood was drawn into tubes containing EDTA to prevent coagulation, and placed on ice prior to analysis. The blood was assayed for the presence of AGN 194310 by gas chromatography/mass spectrometry.
AGN 194310 was systemically absorbed following oral administration to rats and approached the peak concentration in plasma (Cmax) at 2 or 6 hours post dosing (Tmax).

Stability to light = assay type: physicochemical
male cynomologus monkeys = test: Preliminary test of AGN 194310 in male cynomologus monkeys; assay type: in vivo, cynomologus monkey; conditions: 5 male cynomologus monkeys, daily dosage of 1.25 mg/kg
Excerpt: Those of skill in the art will also recognize that both rats and monkeys are commonly used and accepted animal models for drug efficacy in humans.

For `CCc1ccc(C2=CC(C)(C)Sc3ccc(C#Cc4ccc(C(=O)O)cc4)cc32)cc1` [AGN 194310, 4-[[4-(4-ethylphenyl)-2,2-dimethyl-(2H)-thiochromen-6-yl]-ethynyl]-benzoic acid], the “systemic exposure to AGN 194310” value ([1]; across the concentrations of AGN 194310) was “dose dependent increase”, the Tmax ([1]; 0.005 mg/kg/day) was 2 h and the Tmax ([1]; 0.015 mg/kg/day) was 2 h. The Tmax ([1]; 0.15 mg/kg/day) was 6 h, the Cmax ([1]; 0.005 mg/kg/day, 0.001% AGN 194310 (0.005 mg/kg/day), Day 7, mean ± SD) was 1.83 ± 0.55 ng/mL and the Cmax ([1]; 0.005 mg/kg/day, 0.001% AGN 194310 (0.005 mg/kg/day), Day 22, mean ± SD) was 1.97 ± 0.75 ng/mL. It also gave an AUC(0-t) ([1]; 0.005 mg/kg/day, Day 7, mean ± SEM) of 19.6 ± 1.1 ng·h/mL, an AUC(0-t) ([1]; 0.005 mg/kg/day, Day 22, mean ± SEM) of 20.8 ± 1.1 ng·h/mL and a Cmax ([1]; 0.015 mg/kg/day, 0.003% AGN 194310 (0.015 mg/kg/day), Day 7, mean ± SD) of 4.73 ± 1.2 ng/mL. For the same molecule, the Cmax ([1]; 0.015 mg/kg/day, 0.003% AGN 194310 (0.015 mg/kg/day), Day 22, mean ± SD) was 5.32 ± 1.56 ng/mL, the AUC(0-t) ([1]; 0.015 mg/kg/day, Day 7, mean ± SEM) was 57.6 ± 2.6 ng·h/mL and the AUC(0-t) ([1]; 0.015 mg/kg/day, Day 22, mean ± SEM) was 63.6 ± 2.7 ng·h/mL. The Cmax ([1]; 0.15 mg/kg/day, 0.01% AGN 194310 (0.15 mg/kg/day), Day 7, mean ± SD) was 43.1 ± 7.2 ng/mL, the Cmax ([1]; 0.15 mg/kg/day, 0.01% AGN 194310 (0.15 mg/kg/day), Day 22, mean ± SD) was 42.4 ± 9.3 ng/mL and the AUC(0-t) ([1]; 0.15 mg/kg/day, Day 7, mean ± SEM) was 668 ± 24 ng·h/mL. The AUC(0-t) ([1]; 0.15 mg/kg/day, Day 22, mean ± SEM) was 675 ± 25 ng·h/mL, the “stability to normal light” value (Stability to light) was “relatively stable to normal light” and the “inhibition or arrest of spermatogenesis” value (male cynomologus monkeys) was “did not result in inhibition or arrest of spermatogenesis”.
